In ChEMBL document CHEMBL1130610, “Synthesis and immunosuppressant activity of pyrazole carboxamides” (Bioorg Med Chem Lett, 1998):
Values after ≈ are worked out from the molar mass of the structure shown. Active and inactive are the calls of the source. The calls are words filed in the database; no cut-off is given here.

Experiments:
[1] = organism: Homo sapiens; assay: Compound was tested for immunosuppressant activity using human mixed leukocyte response(HMLR); Not active, < 20 % inhibition at 10 uM; format: functional
[2] = organism: Rattus norvegicus; assay: Compound was tested for immunosuppressant activity in rat using mixed leukocyte response(MLR); Not active, < 20 % inhibition at 10 uM; format: functional
[3] = organism: Homo sapiens; assay: Immunosuppressant activity using human mixed leukocyte response (HMLR).; format: functional
[4] = organism: Rattus norvegicus; assay: Immunosuppressant activity in rat using mixed leukocyte response (MLR).; format: functional
[5] = organism: Homo sapiens; assay: Compound was tested for immunosuppressant activity using human mixed leukocyte response(HMLR) at a concentration of 10 uM; Not active; format: functional
[6] = organism: Rattus norvegicus; assay: Compound was tested for immunosuppressant activity in rat using mixed leukocyte response(MLR) at a concentration of 10 uM; Not active; format: functional
[7] = C max value was evaluated; format: ADME, organism-based; conditions: in vivo
[8] = Aqueous solubility at a pH of 7.3.; format: physicochemical; conditions: pH 7.3, read-out: S
[9] = Half-life value was evaluated; format: ADME
[10] = organism: Homo sapiens; assay: Compound was tested for immunosuppressant activity using human mixed leukocyte response(HMLR) assay.; format: functional
[11] = organism: Homo sapiens; assay: Compound was tested for immunosuppressant activity using human mixed leukocyte response(HMLR) at 10 uM; Not active; format: functional
[12] = organism: Rattus norvegicus; assay: Compound was tested for immunosuppressant activity in rat using mixed leukocyte response (MLR).; format: functional
[13] = organism: Homo sapiens; assay: Compound was tested for immunosuppressant activity using human mixed leukocyte response (HMLR).; format: functional

| SMILES | IC50 [3] [nM] | IC50 [4] [nM] | other results |
| --- | --- | --- | --- |
| C/C(Nc1ccccc1)=C(/C#N)C(=O)Nc1ccc(C(F)(F)F)cc1 |  |  | inhibition [1]: inactive; inhibition [2]: inactive |
| Cc1cccc(-n2ncc(C(=O)Nc3ccc(C(F)(F)F)cc3)c2C)c1 | 2500 | 890 |  |
| Cc1c(-c2ccc(-c3ccccc3F)cc2)nc2ccc(F)cc2c1C(=O)O [BREQUINAR] | 3900 | 1600 |  |
| Cc1c(C(=O)Nc2ccc(OC(F)(F)F)cc2)cnn1-c1ccc(F)cc1 | 3400 | 2600 |  |
| Cc1ccccc1-n1ncc(C(=O)Nc2ccc(C(F)(F)F)cc2)c1C | 1500 | 150 |  |
| Cc1c(C(=O)Nc2ccc(C(F)(F)F)cc2)cnn1-c1ccc(F)c(Cl)c1 | 1300 | 210 |  |
| Cc1c(C(=O)Nc2ccc(C(F)(F)F)cc2)cnn1Cc1ccc(F)cc1 | 3600 | 2400 |  |
| Cc1n[nH]cc1C(=O)Nc1ccc(C(F)(F)F)cc1 |  |  | inhibition at 10 µM [5]: < 20%; inhibition at 10 µM [6]: < 20% |
| Cc1c(C(=O)Nc2ccc(C(F)(F)F)cc2)cnn1Cc1ccccc1 | 3700 | 2700 |  |
| Cc1c(C(=O)N(CC(=O)O)c2ccc(C(F)(F)F)cc2)cnn1-c1ccc(F)cc1 | 3200 | 310 | Cmax [7]: 4450 ng/mL; solubility [8]: 1530 µg/mL (≈ 3640 µM); half-life [9]: 6 h |
| Cc1c(C(=O)Nc2ccc(C(F)(F)F)cc2)cnn1-c1ccccc1C(F)(F)F | 2600 | 260 |  |
| Cc1c(C(=O)Nc2ccc(C(F)(F)F)cc2)cnn1-c1ccc([N+](=O)[O-])cc1 | 5700 | 2300 |  |
| Cc1oncc1C(=O)Nc1ccc(C(F)(F)F)cc1 [LEFLUNOMIDE] | 5400 | 1000 |  |
| Cc1c(C(=O)Nc2ccc(C(F)(F)F)cc2)cnn1-c1cccc(F)c1 | 3100 | 220 |  |
| Cc1c(C(=O)Nc2cccc(C(F)(F)F)c2)cnn1-c1ccc(F)cc1 | 1700 | 1100 |  |
| Cc1c(C(=O)Nc2ccc(F)cc2)cnn1-c1ccc(F)cc1 |  | 610 | IC50 [10]: 2400 nM |
| Cc1c(C(=O)Nc2ccc(C(F)(F)F)cc2)cnn1-c1ccccc1 | 2300 | 650 |  |
| Cc1cc(C)cc(-n2ncc(C(=O)Nc3ccc(C(F)(F)F)cc3)c2C)c1 | 2200 | 410 |  |
| Cc1c(C(=O)Nc2ccc(C(F)(F)F)cc2)cnn1-c1cccc(Cl)c1Cl | 1600 | 240 |  |

| SMILES | IC50 [3] [nM] | IC50 [4] [nM] | other results |
| --- | --- | --- | --- |
| Cc1c(C(=O)Nc2ccc(C(F)(F)F)cc2)cnn1-c1ccccc1F | 1100 | 110 |  |
| Cc1c(C(=O)Nc2ccc(C(F)(F)F)cc2)cnn1-c1ccc(Cl)cc1 | 410 | 7400 |  |
| Cc1c(C(=O)NCc2ccc(F)cc2)cnn1-c1ccc(F)cc1 |  | 330 | inhibition at 10 µM [11]: < 20% |
| Cc1cccc(NC(=O)c2cnn(-c3ccc(F)cc3)c2C)c1 | 5700 | 890 |  |
| Cc1c(C(=O)Nc2ccc(C(F)(F)F)cc2)cnn1CCc1ccc(F)cc1 | 5400 | 1700 |  |
| Cc1c(C(=O)NCCc2ccc(F)cc2)cnn1-c1ccc(F)cc1 |  | 300 | inhibition at 10 µM [5]: < 20% |
| Cc1c(C(=O)Nc2ccccc2F)cnn1-c1ccc(F)cc1 | 4000 | 5100 |  |
| C/C(Nc1ccc([N+](=O)[O-])cc1)=C(/C#N)C(=O)Nc1ccc(C(F)(F)F)cc1 |  |  | inhibition [1]: inactive; inhibition [2]: inactive |
| Cc1c(C(=O)Nc2ccc(C(F)(F)F)cc2)cnn1-c1ccc(F)cc1 |  |  | Cmax [7]: 460 ng/mL; solubility [8]: 0.4 µg/mL (≈ 1.1 µM); half-life [9]: 13.7 h; IC50 [12]: 270 nM; IC50 [13]: 850 nM |
| C/C(Nc1ccc(F)cc1)=C(/C#N)C(=O)Nc1ccc(C(F)(F)F)cc1 |  |  | inhibition [1]: inactive; inhibition [2]: inactive |
| Cc1ccc(NC(=O)c2cnn(-c3ccc(F)cc3)c2C)cc1 | 540 | 200 |  |
| COc1ccc(-n2ncc(C(=O)Nc3ccc(C(F)(F)F)cc3)c2C)cc1 | 340 | 1000 |  |
| Cc1ccc(-n2ncc(C(=O)Nc3ccc(C(F)(F)F)cc3)c2C)cc1 | 410 | 1000 |  |
| CCCCC(CC)NC(=O)c1cnn(-c2ccc(F)cc2)c1C (stereo not given) | 580 | 110 |  |
| COc1cccc(-n2ncc(C(=O)Nc3ccc(C(F)(F)F)cc3)c2C)c1 | 2500 | 2500 |  |
| Cc1ccccc1NC(=O)c1cnn(-c2ccc(F)cc2)c1C | 1100 | 110 |  |
| COc1cccc(NC(=O)c2cnn(-c3ccc(F)cc3)c2C)c1 | 3700 | 3600 |  |
| Cc1c(C(=O)Nc2cccc(F)c2)cnn1-c1ccc(F)cc1 | 3000 | 800 |  |
